Assay results: patent US8906829B2, “Synergistic algicidal compositions including hydrazone derivatives and copper” (Dow AgroSciences LLC, priority 2010, dated 2014)

Columns and labels:
[1] = tested on: C. reinhardtii CC-1928; assay: Effect of copper on activity of hydrazones: in vitro growth inhibition of C. reinhardtii in TAP Cu minus / TAP Cu plus medium (Example 10); type: cell-based, Chlamydomonas reinhardtii; details: test compound 1 μg/mL, 48 h; for inhibition of growth at 1 µg/mL: Chlamydomonas reinhardtii, TAP Cu minus medium, read-out: % Inhn. Minus Copper Observed; for % Inhn. Plus Copper Observed: TAP Cu plus medium (CuCl2)
Protocol: In vitro toxicity assays against C. reinhardtii CC-1928 (wild type mt+137c green in dark subclone) obtained from the Chlamydomonas Resource Center at Duke University were conducted using TAP liquid growth medium described by Gorman and Levine Proc. Natl. Acad. Sci. USA 1965, 54, 1665-1669 except that CuSO4.5H2O, normally included as a component of Hutner's trace element stock solution (Hutner et al. Proc. Am. Philos. Soc. 1950, 94, 152-170), was omitted. The TAP medium lacking Cu (TAP Cu minus) was prepared by adding 400 mg NH4Cl, 10 mL of 100× Tris-Acetate (242 g Tris-base and 100 mL glacial acetic acid in 1000 mL milli Q water), and 8.3 mL of 120.5× phosphate buffer (14.34 g K2HPO4 and 7.26 g KH2PO4 in 1000 mL milli Q water) to milli Q water to make a total volume of 1 liter. The medium was treated with 0.5 g Chelex 100 resin (Bio-Rad Analytical grade, 50-100 mesh, sodium form, cat#142-2822) by stirring at room temperature for 1 hour. 900 mL were decanted and 45.9 mg of CaCl2.2H2O, 90 mg of MgSO4.7H2O and 0.9 mL Hutner's trace elements lacking CuSO4.5H2O were added and the solution was filter-sterilized. Medium containing copper (TAP Cu plus) was prepared by adding CuCl2.2H2O to the TAP Cu minus medium at 20 μM. Test compounds were dissolved in dimethylsulfoxide (DMSO) at 2 mg/mL then dilutions in TAP Cu minus and TAP Cu plus media were prepared in sterilized microcentrifuge tubes at 2 μg/mL. 100 μL aliquots of diluted compound were dispensed into flat-bottomed 96-well microtiter plates. C. reinhardtii was maintained under 12 h of light on TAP agar plates at 18° C. A loopful of cells was added to 50 mL of TAP Cu minus medium and the culture incubated with shaking at 200 rpm at 27° C. for 24 h. The culture (10 to 20 mL aliquot) was centrifuged in a bench centrifuge at 2000 rpm for 2 min. The resulting cell pellet was resuspended in 5 mL sterile milli Q water (which had been treated with Chelex 100 resin using 0.5 g resin per liter of water by stirring at room temperature for 1 h), and recentrifuged. The cells were resuspended in TAP Cu minus medium, and the suspension adjusted to 2×10^5 spores per mL. Microtiter plates containing compounds as described above were inoculated with 100 μL of this cell suspension and the plates incubated at 27° C. for 48 h before assessing algal growth by measuring light scattering in a NepheloStar plate-reader. Growth inhibition was determined by comparing growth in the presence of test compound with growth in control wells lacking test compound. Results for growth inhibition by test compounds at 1 μg/mL in TAP Cu plus medium (% Inhn Plus Copper Observed) were compared with predicted values (% Inhn Plus Copper Predicted) that were calculated using the formula set forth by S. R. Colby in Weeds 1967, 15, 20-22 based on results obtained for the same compounds in TAP Cu minus medium (% Inhn Minus Copper Observed). […] Results illustrate that hydrazones and copper produce a synergistic algicidal effect towards C. reinhardtii.

[2] = tested on: Synechocystis sp. strain 6803; assay: Effect of copper on activity of hydrazones: in vitro growth inhibition of Synechocystis in BG-11 Cu minus / Cu plus medium (Example 11); type: cell-based; details: 72 h; for inhibition of growth at 0.05 µg/mL / inhibition of growth at 0.00625 µg/mL: Synechocystis, BG-11 Cu minus medium, read-out: % Inhn. Minus Copper Observed; for % Inhn. Plus Copper Observed: BG-11 Cu plus medium
Protocol: In vitro toxicity assays against the cyanobacterium (blue-green alga) Synechocystis sp. strain 6803 were conducted using BG-11 medium except that copper micronutrient, normally included as CuSO4.5H2O, was omitted. The medium, termed BG-11 Cu minus, was prepared by dissolving 1.5 g NaNO3, 40 mg K2HPO4, 6 mg citric acid, 1 mg Na2EDTA and 20 mg Na2CO3 in 1 liter of milli Q water and treating the solution with 0.5 g Chelex 100 resin (Bio-Rad Analytical grade, 50-100 mesh, sodium form, cat#142-2822) by stifling at room temperature for 1 h. 900 mL were decanted and 67.5 mg MgSO4.7H2O, 32.4 mg […], 5.4 mg ferric ammonium citrate and 0.9 mL trace metal mix A5 without copper (2.86 g H3BO3, 1.81 g MnCl2.4H2O, 222 mg ZnSO4.7H2O, 390 mg Na2MoO4.2H2O and Co(NO3)2.6H2O in 1 L Milli Q water) was added. The pH was adjusted to 7.1 and the medium was filter-sterilized. Medium containing copper (BG-11 Cu plus) was prepared by adding CuCl2.2H2O to the BG-11 Cu minus medium at 0.2 μM. Test compounds were dissolved in dimethylsulfoxide (DMSO) at 2 mg/mL then appropriate dilutions in BG-11 Cu minus and BG-11 Cu plus media were prepared in sterilized microcentrifuge tubes. 100 μL aliquots were dispensed into flat-bottomed 96-well microtiter plates. Synechocystis was maintained under 24 h of light on BG-11 agar plates at 27° C. A loopful of cells was added to 50 mL of BG-11 Cu minus growth medium and the culture was incubated with shaking at 200 rpm at 27° C. for 24 h. The culture (10 to 20 mL aliquot) was centrifuged in a bench centrifuge at 2400 rpm for 2 min. The resulting cell pellet was resuspended in 5 mL sterile milli Q water (which had been treated with Chelex 100 resin using 0.5 g resin per liter of water by stirring at room temperature for 1 h), and recentrifuged. The cells were resuspended in BG-11 Cu minus medium, and the suspension adjusted to 4×10^5 spores per mL. Microtiter plates containing compounds as described above were inoculated with 100 μL of this cell suspension and the plates incubated at 27° C. for 72 h before assessing algal growth by measuring light scattering in a NepheloStar plate reader. Growth inhibition was determined by comparing growth in the presence of test compound with growth in control wells lacking test compound. Results for growth inhibition by test compounds in BG-11 Cu plus medium (% Inhn Plus Copper Observed) were compared with predicted values (% Inhn Plus Copper Predicted) that were calculated using the formula set forth by S. R. Colby in Weeds 1967, 15, 20-22 based on-results obtained for the same compounds in BG-11 Cu minus medium (% Inhn Minus Copper Observed) and the inhibition attributed to copper chloride alone, as determined by comparing growth in copper-minus and copper-plus media without any test compound across experiments. Results illustrate that hydrazones and copper produce a synergistic algicidal effect towards Synechocystis.

| melting point | SMILES | inhibition of growth at 1 µg/mL [1] | % Inhn. Plus Copper Observed [1] | inhibition of growth at 0.05 µg/mL ([2]; Test Concn. 0.05 μg/mL) | % Inhn. Plus Copper Observed ([2]; Test Concn. 0.05 μg/mL) | inhibition of growth at 0.00625 µg/mL ([2]; Test Concn. 0.00625 μg/mL) | % Inhn. Plus Copper Observed ([2]; Test Concn. 0.00625 μg/mL) |
| --- | --- | --- | --- | --- | --- | --- | --- |
| 185 to 187 °C | C/C(=N\NC(=O)c1ccccc1)c1ccccc1O [Compound 2] | 10% | 95% | -8% | 97% |  |  |
|  | O=C(N/N=C/c1cc(Cl)ccc1O)c1ccccc1 [Compound 3] | 25% | 62% | -17% | 96% |  |  |
|  | O=C(N/N=C/c1cc(Cl)cc(Cl)c1O)c1ccc(F)cc1 [Compound 4] | 12% | 92% | -14% | 96% |  |  |
| 220 to 222 °C | C/C(=N\NC(=O)c1ccccc1Br)c1cc(Cl)cc(Cl)c1O [Compound 5] | 26% | 95% | -10% | 91% |  |  |
|  | O=C(N/N=C/c1cc(Cl)cc(Cl)c1O)c1cccc(Cl)c1 [Compound 8] | 15% | 92% | 62% | 92% |  |  |
|  | O=C(N/N=C/c1cc(Cl)cc(Cl)c1O)c1ccc(Br)cc1 [Compound 9] | 7% | 90% |  |  | 15% | 74% |
| 215 to 217 °C | O=C(N/N=C/c1cc(Cl)cc(Cl)c1O)c1ccc2ccccc2c1 [Compound 10] | 24% | 93% | 44% | 95% |  |  |
|  | O=C(N/N=C/c1cc(Br)cc(Br)c1O)c1ccccc1 [Compound 11] | 31% | 96% | 50% | 97% |  |  |
| 199 to 204 °C | C/C(=N\NC(=O)Cc1ccccc1)c1cc(Cl)cc(Cl)c1O [Compound 13] | 17% | 96% | 22% | 96% |  |  |
|  | Cc1ccccc1C(=O)N/N=C/c1cc(Cl)cc(Br)c1O [Compound 16] | -3% | 95% | -5% | 94% |  |  |
|  | O=C(N/N=C/c1cc(Cl)cc(Br)c1O)c1cccc(Br)c1 [Compound 17] | 32% | 83% |  |  | 59% | 72% |
